In ChEMBL document CHEMBL1201862, “PubChem BioAssay data set” (2004):
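In this assay, cells in 96-well plates receive the compound at five concentrations for 48 hours. Endpoints are linearly interpolated between the surrounding concentrations. Abbreviation: GI50, concentration required for 50% inhibition of growth.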 Active and inactive are the calls of the source. No stated cut-off is given here; in the data, active = GI50 up to about 1.1 µM and inactive = higher. *1 amine or outer side, *2 acyl side, *3 side chain or, on linkers, in order; H or OH if unused. Where a SMILES comes first, the peptide text is derived from it. [ ]: non-standard residue; d: D form. The star is where a group is joined. ξ: configuration not given here. X53 = CC(C)C[C@H](N[*:1])C1=N[C@H](C(=O)[*:2])CS1; Ile(3ξ) = CCC(C)[C@H](N)C(=O)O; Allyl(1,1-Me2) = C=CC(C)(C)*

What was measured:
Experiment in all cases: DTP human tumour cell line panel, 48 h
[1] = system: HCT-15
[2] = system: SR
[3] = system: EKVX
[4] = system: PC-3
[5] = system: NCI-H23
[6] = system: UACC-62
[7] = system: HCT-116
[8] = system: OVCAR-4
[9] = system: HL-60
[10] = system: SK-MEL-2
[11] = system: KM12
[12] = system: NCI-H460
[13] = system: MOLT-4
[14] = system: OVCAR-8
[15] = system: SNB-75
[16] = system: A498
[17] = system: SW-620
[18] = system: IGROV-1
[19] = system: Malme-3M
[20] = system: COLO 205

SMILES	GI50 [1] [µM]	GI50 [2]	GI50 [3]	GI50 [4]	GI50 [5]	GI50 [6]	GI50 [7]	GI50 [8]	GI50 [9]	GI50 [10]	GI50 [11]	GI50 [12]	GI50 [13]	GI50 [14]	GI50 [15]	GI50 [16]	GI50 [17]	GI50 [18]	GI50 [19]	GI50 [20]
O=[N+]([O-])c1ccc2oc(=N/c3ccccc3)/c(=N\c3ccccc3)[nH]c2c1	> 100	> 100 µM (inactive)	70.5 µM (inactive)	65.3 µM (inactive)	57.4 µM (inactive)	58.7 µM (inactive)	48.2 µM (inactive)	37.9 µM (inactive)	> 100 µM (inactive)	36.7 µM (inactive)	37.5 µM (inactive)	29.6 µM (inactive)	> 100 µM (inactive)	75.3 µM (inactive)	18 µM (inactive)	59.4 µM (inactive)	> 100 µM (inactive)	32.1 µM (inactive)	87.1 µM (inactive)	> 100 µM (inactive)
CC(C)N1CCN(c2ccc(OCC3COC(Cn4cncn4)(c4ccc(Cl)cc4Cl)O3)cc2)CC1 (stereo unspecified) [TERCONAZOLE]	9.53	3.33 µM (inactive)	15.1 µM (inactive)	14.6 µM (inactive)	14.2 µM (inactive)	2.34 µM (inactive)	11.2 µM (inactive)	17.2 µM (inactive)	15.4 µM (inactive)	14.7 µM (inactive)	13.2 µM (inactive)	14.6 µM (inactive)	10.9 µM (inactive)	17.3 µM (inactive)	12.8 µM (inactive)	14 µM (inactive)	15.3 µM (inactive)	16 µM (inactive)	7.85 µM (inactive)	1.9 µM (inactive)
Cc1cc(-c2nc3cc(O)ccc3s2)ccc1N	41.2	32 µM (inactive)	10.2 µM (inactive)	30.1 µM (inactive)	46.1 µM (inactive)	19.9 µM (inactive)	22.8 µM (inactive)	28 µM (inactive)	32.1 µM (inactive)	28.4 µM (inactive)	23.2 µM (inactive)	29 µM (inactive)	96.2 µM (inactive)	47.1 µM (inactive)	23.7 µM (inactive)	24.7 µM (inactive)	38 µM (inactive)	33.4 µM (inactive)	45.7 µM (inactive)	21 µM (inactive)
NC(=S)C1=C(N)Oc2c(c(=O)oc3ccccc23)C1c1ccc(Br)cc1 (stereo unspecified)	> 100	1.61 µM (inactive)	> 100 µM (inactive)	> 100 µM (inactive)	> 100 µM (inactive)	> 100 µM (inactive)	> 100 µM (inactive)	> 100 µM (inactive)	50.8 µM (inactive)	> 100 µM (inactive)	–	> 100 µM (inactive)	–	> 100 µM (inactive)	82.6 µM (inactive)	63.2 µM (inactive)	> 100 µM (inactive)	> 100 µM (inactive)	> 100 µM (inactive)	> 100 µM (inactive)
Cc1nc2c(o1)C(=O)c1ccccc1/C2=N/C1CCCCC1N (stereo unspecified)	0.547	0.22 µM (active)	1.11 µM (active)	0.321 µM (active)	0.0975 µM (active)	0.169 µM (active)	0.259 µM (active)	0.308 µM (active)	0.2 µM (active)	0.867 µM (active)	1.67 µM (inactive)	1.61 µM (inactive)	0.273 µM (active)	0.274 µM (active)	0.206 µM (active)	1.73 µM (inactive)	0.418 µM (active)	1.26 µM (inactive)	0.133 µM (active)	1.66 µM (inactive)
N#Cc1c(NC(=S)Nc2ccccc2)sc2c1CCCC2	> 100	> 100 µM (inactive)	> 100 µM (inactive)	> 100 µM (inactive)	> 100 µM (inactive)	94.2 µM (inactive)	> 100 µM (inactive)	> 100 µM (inactive)	> 100 µM (inactive)	> 100 µM (inactive)	> 100 µM (inactive)	> 100 µM (inactive)	> 100 µM (inactive)	> 100 µM (inactive)	> 100 µM (inactive)	> 100 µM (inactive)	> 100 µM (inactive)	> 100 µM (inactive)	> 100 µM (inactive)	> 100 µM (inactive)
Nc1nc2cc3nc(N)c(N)nc3cc2nc1N	> 100	71.8 µM (inactive)	> 100 µM (inactive)	> 100 µM (inactive)	> 100 µM (inactive)	> 100 µM (inactive)	84.3 µM (inactive)	–	30.1 µM (inactive)	> 100 µM (inactive)	> 100 µM (inactive)	> 100 µM (inactive)	92.9 µM (inactive)	> 100 µM (inactive)	> 100 µM (inactive)	> 100 µM (inactive)	> 100 µM (inactive)	> 100 µM (inactive)	> 100 µM (inactive)	> 100 µM (inactive)
O=C1C=C(Nc2cccnc2)c2ccccc2C1=O	4.31	6.55 µM (inactive)	12.2 µM (inactive)	8.85 µM (inactive)	2.8 µM (inactive)	1.68 µM (inactive)	11.6 µM (inactive)	8.87 µM (inactive)	3.31 µM (inactive)	7.23 µM (inactive)	4.03 µM (inactive)	3.41 µM (inactive)	17.6 µM (inactive)	7.55 µM (inactive)	1.51 µM (inactive)	9.08 µM (inactive)	4.13 µM (inactive)	7.73 µM (inactive)	2.34 µM (inactive)	21.6 µM (inactive)
O=c1cc(NNc2ccccc2)[nH]c(=S)[nH]1	17.8	22.5 µM (inactive)	98.9 µM (inactive)	> 100 µM (inactive)	47.1 µM (inactive)	63.1 µM (inactive)	23.2 µM (inactive)	71 µM (inactive)	25.1 µM (inactive)	16.6 µM (inactive)	27.5 µM (inactive)	76.2 µM (inactive)	35.2 µM (inactive)	36.1 µM (inactive)	> 100 µM (inactive)	> 100 µM (inactive)	20.5 µM (inactive)	79.4 µM (inactive)	37.7 µM (inactive)	49 µM (inactive)
C=CC(C)(C)OC[C@@H]1NC(=O)CNC(=O)[C@@H]2CCCN2C(=O)[C@H](C(C)CC)NC(=O)[C@@H]2CSC(=N2)[C@H](CC(C)C)NC1=O (stereo partly specified) (cyclo(GS(Allyl(1,1-Me2))[X53][Ile(3ξ)]P))	58.1	64.4 µM (inactive)	64.3 µM (inactive)	44.2 µM (inactive)	43.9 µM (inactive)	72.3 µM (inactive)	56.5 µM (inactive)	22.3 µM (inactive)	29.2 µM (inactive)	> 100 µM (inactive)	55.2 µM (inactive)	37.6 µM (inactive)	27.5 µM (inactive)	69.3 µM (inactive)	34.5 µM (inactive)	> 100 µM (inactive)	–	59 µM (inactive)	> 100 µM (inactive)	> 100 µM (inactive)
CCO/C=N\c1c(C#N)c(-c2ccc(Cl)cc2)cn1-c1ccc(C)cc1	> 100	0.0272 µM (active)	> 100 µM (inactive)	> 100 µM (inactive)	> 100 µM (inactive)	> 100 µM (inactive)	> 100 µM (inactive)	> 100 µM (inactive)	> 100 µM (inactive)	> 100 µM (inactive)	–	> 100 µM (inactive)	–	> 100 µM (inactive)	> 100 µM (inactive)	> 100 µM (inactive)	> 100 µM (inactive)	> 100 µM (inactive)	> 100 µM (inactive)	> 100 µM (inactive)
Brc1ccc(-c2[nH]c3ccccc3c2/N=N\c2ccccc2)cc1	16.3	15.3 µM (inactive)	16.6 µM (inactive)	16.1 µM (inactive)	18.2 µM (inactive)	19.8 µM (inactive)	19 µM (inactive)	16.3 µM (inactive)	26.8 µM (inactive)	20.5 µM (inactive)	16.5 µM (inactive)	17.1 µM (inactive)	16.9 µM (inactive)	–	19.5 µM (inactive)	25.4 µM (inactive)	17.5 µM (inactive)	12.1 µM (inactive)	19.1 µM (inactive)	15 µM (inactive)
COC1C=COC2(C)Oc3c(C)c(O)c4c(O)c(c(C5SCCS5)c(O)c4c3C2=O)NC(=O)/C(C)=C\C=CC(C)C(O)C(C)C(O)C(C)C(OC(C)=O)C1C (stereo unspecified)	9.66	3.15 µM (inactive)	–	4.98 µM (inactive)	4.69 µM (inactive)	6.18 µM (inactive)	5.02 µM (inactive)	7.33 µM (inactive)	4.02 µM (inactive)	6.43 µM (inactive)	5.35 µM (inactive)	4.26 µM (inactive)	2.32 µM (inactive)	7.87 µM (inactive)	7.53 µM (inactive)	13.1 µM (inactive)	5.42 µM (inactive)	7.33 µM (inactive)	8.11 µM (inactive)	2.49 µM (inactive)
COC(=O)c1c2c(cc3c1CC1(Cc4ccccc4C1=O)C3)CCC2 (stereo unspecified)	21.4	15.6 µM (inactive)	15.9 µM (inactive)	55.7 µM (inactive)	38.8 µM (inactive)	–	26.6 µM (inactive)	36.1 µM (inactive)	16 µM (inactive)	43.7 µM (inactive)	25.5 µM (inactive)	29.9 µM (inactive)	12.2 µM (inactive)	44.1 µM (inactive)	19.4 µM (inactive)	22.4 µM (inactive)	31.8 µM (inactive)	26.6 µM (inactive)	20.3 µM (inactive)	3.52 µM (inactive)
